Experimental data published in patent US20210060013A1, “Method for Preventing Triple Negative Breast Cancer in Predisposed Subjects” (Southern University of Science and Technology, priority 2019, published 2021).

Experiments:
[1] = test system: MMTV-PyMT mice; experiment: MMTV-PyMT mouse model of breast cancer, preventive crenolanib treatment; assay type: in vivo; details: for tumor growth (tumor volumes by calipers) vs vehicle-treated mice: measured every 5 d, beginning at day 10, FIGS. 1A, 1B
Protocol: FIGS. 1A to 1C show the ability of the present invention to prevent the development of mammary tumors in a subject genetically predisposed and at high risk of developing breast cancer. MMTV-PyMT mice were administered crenolanib starting at 8 weeks of age, before the development of palpable mammary tumors. FIG. 1A: Mice were treated with 20 mg/kg crenolanib, dissolved in vehicle, intraperitoneally once daily for 35 days. FIG. 1B: Tumor sizes were measured using digital calipers every 5 days during treatment and volumes were calculated using a standard formula ((length×width)/2)). Control mice were treated with vehicle alone. FIG. 1C: At the end of crenolanib treatment, mice were sacrificed, and final tumor weight was determined.
In the MMTV-PyMT mouse model of breast cancer, the Polyoma Virus middle T antigen is expressed under the control of the mouse mammary tumor virus promoter, which results in spontaneous formation of mammary tumors in female mice. This model effectively recapitulates all of the stages of human disease, and mice develop tumors begin developing palpable mammary tumors at approximately 13 weeks of age (Guy, Cardiff, & Muller, 1992). Therefore, the MMTV-PyMT model is a highly reproducible and highly faithful model for the development of TNBC.
Animal Studies. All animal procedures were approved by the Institutional Animal Care and Use Committee at Southern University of Science and Technology. Twelve 8-wk-old female MMTV-PyMT mice were divided into six groups. The two mice in each group were littermates. Each group of mice was treated with crenolanib (20 mg/kg, dissolved in vehicle; Selleck) or vehicle [5% (vol/vol) glycerol formal; Sigma] intraperitoneally once daily for 35 d. Once palpable, tumor sizes were measured with a digital caliper every 5 d, and the volumes were calculated using the formula (length×width)/2. Data were reported as means±SE. At the end of crenolanib treatment, mice were killed, and tumors were harvested and weighted.
In vivo analysis also validated that PDGFRB was prominently expressed in tumor associated stromal cells, including spindle-shaped fibroblasts, but not in tumor tissues by using the polyoma middle T (PyMT) oncogene-driven breast cancer mouse model, which mimics all identifiable stages of human breast cancer progression (28) (data not shown). […] To further analyze the paracrine effects of breast cancer cells on fibroblast expansion, the inventors assessed the ligand secretion by breast cancer cells (data not shown). […] Tumor volumes in crenolanib-treated and untreated mice were measured every 5 d after dosing initiation. […] In addition, tumor weight per mouse at sacrifice (12 wk) was 55% lower in crenolanib-treated mice than in vehicle-treated mice (FIG. 1C).

[2] = test system: PDGFRβ; experiment: Induced PDGFRβ pathway signaling in human mammary fibroblasts (Western blot); assay type: cell-based
Protocol: SDS/PAGE and Western Blot Analysis. The labeling performance of probe 1 to various bait proteins was characterized by high-resolution SDS/PAGE using the PROTEAN II xi Cell electrophoresis instrument (gel size, 16×20 cm; Bio-Rad) and Coomassie brilliant blue staining. Equal amounts of protein were separated by SDS/PAGE and transferred to membranes. Membranes were blocked in 5% (wt/vol) BSA and then incubated with a primary antibody overnight at 4° C., followed by an incubation with an HRP-conjugated anti-rabbit or anti-mouse secondary antibody (Cell Signaling Technology). Proteins were visualized using a Western ECL Substrate Kit (Bio-Rad). The primary antibodies used in this study were streptavidin-HRP (Thermo Fisher), anti-4G10 (Merck Millipore), anti-His (Cell Signaling Technology), anti-EGFR (Cell Signaling Technology), anti-ERBB2 (Cell Signaling Technology), anti-PDGFRB (Cell Signaling Technology), anti-p-STAT3 (Cell Signaling Technology), anti-p-AKT (Cell Signaling Technology), anti-AKT (Cell Signaling Technology), anti-p-ERK 1/2 (Cell Signaling Technology), anti-ERK 1/2 (Cell Signaling Technology), and anti-β-actin (Beyotime).
In addition, the ability of the present invention to block PDGFR signaling in a conditioned media in vitro system was investigated. […]

[3] = test system: other known RTKs (e.g., VEGFR or fibroblast growth factor receptor) or serine/threonine kinases (e.g. Abl, Raf); details: at concentrations that are used clinically; cited from earlier work
[4] = target: PDGFRβ (Homo sapiens, UniProt P09619); details: cited from earlier work
[5] = test system: inflammatory breast cancer cells; details: in vitro; cited from earlier work
[6] = target: PDGFRα (Homo sapiens, UniProt P16234); details: cited from earlier work
[7] = in vivo; cited from earlier work
[8] = treatment starting at 8 weeks of age, before palpable mammary tumors

Chain of PDGFRβ (Homo sapiens, UniProt P09619) (P09619 33-1106): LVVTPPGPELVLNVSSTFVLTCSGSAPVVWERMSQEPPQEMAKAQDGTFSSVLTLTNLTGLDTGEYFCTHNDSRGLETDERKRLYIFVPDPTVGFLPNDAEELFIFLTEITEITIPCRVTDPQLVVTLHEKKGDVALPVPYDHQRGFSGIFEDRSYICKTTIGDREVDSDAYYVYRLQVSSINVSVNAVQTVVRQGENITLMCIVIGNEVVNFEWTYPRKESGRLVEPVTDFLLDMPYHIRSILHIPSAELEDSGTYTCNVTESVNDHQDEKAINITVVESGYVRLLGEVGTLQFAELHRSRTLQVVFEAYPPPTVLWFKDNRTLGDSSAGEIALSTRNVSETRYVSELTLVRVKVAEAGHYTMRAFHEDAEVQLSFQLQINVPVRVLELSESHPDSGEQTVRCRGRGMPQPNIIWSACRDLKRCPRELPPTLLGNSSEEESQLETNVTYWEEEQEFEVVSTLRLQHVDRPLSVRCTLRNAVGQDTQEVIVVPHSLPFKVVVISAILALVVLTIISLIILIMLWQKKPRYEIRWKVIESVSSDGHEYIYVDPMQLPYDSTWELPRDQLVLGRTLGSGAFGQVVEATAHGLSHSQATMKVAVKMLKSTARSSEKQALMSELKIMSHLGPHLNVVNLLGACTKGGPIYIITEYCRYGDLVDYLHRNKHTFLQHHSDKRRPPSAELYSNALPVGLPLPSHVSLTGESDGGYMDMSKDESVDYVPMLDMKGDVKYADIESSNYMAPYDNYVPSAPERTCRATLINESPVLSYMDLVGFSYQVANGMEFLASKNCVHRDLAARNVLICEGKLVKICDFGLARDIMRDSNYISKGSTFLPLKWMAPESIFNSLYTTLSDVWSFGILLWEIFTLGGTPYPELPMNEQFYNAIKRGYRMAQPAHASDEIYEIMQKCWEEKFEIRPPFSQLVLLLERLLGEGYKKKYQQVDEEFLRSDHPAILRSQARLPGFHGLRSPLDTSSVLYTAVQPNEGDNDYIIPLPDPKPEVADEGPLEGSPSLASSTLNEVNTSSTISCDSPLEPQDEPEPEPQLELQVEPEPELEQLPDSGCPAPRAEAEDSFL
Chain of PDGFRα (P16234 24-1089): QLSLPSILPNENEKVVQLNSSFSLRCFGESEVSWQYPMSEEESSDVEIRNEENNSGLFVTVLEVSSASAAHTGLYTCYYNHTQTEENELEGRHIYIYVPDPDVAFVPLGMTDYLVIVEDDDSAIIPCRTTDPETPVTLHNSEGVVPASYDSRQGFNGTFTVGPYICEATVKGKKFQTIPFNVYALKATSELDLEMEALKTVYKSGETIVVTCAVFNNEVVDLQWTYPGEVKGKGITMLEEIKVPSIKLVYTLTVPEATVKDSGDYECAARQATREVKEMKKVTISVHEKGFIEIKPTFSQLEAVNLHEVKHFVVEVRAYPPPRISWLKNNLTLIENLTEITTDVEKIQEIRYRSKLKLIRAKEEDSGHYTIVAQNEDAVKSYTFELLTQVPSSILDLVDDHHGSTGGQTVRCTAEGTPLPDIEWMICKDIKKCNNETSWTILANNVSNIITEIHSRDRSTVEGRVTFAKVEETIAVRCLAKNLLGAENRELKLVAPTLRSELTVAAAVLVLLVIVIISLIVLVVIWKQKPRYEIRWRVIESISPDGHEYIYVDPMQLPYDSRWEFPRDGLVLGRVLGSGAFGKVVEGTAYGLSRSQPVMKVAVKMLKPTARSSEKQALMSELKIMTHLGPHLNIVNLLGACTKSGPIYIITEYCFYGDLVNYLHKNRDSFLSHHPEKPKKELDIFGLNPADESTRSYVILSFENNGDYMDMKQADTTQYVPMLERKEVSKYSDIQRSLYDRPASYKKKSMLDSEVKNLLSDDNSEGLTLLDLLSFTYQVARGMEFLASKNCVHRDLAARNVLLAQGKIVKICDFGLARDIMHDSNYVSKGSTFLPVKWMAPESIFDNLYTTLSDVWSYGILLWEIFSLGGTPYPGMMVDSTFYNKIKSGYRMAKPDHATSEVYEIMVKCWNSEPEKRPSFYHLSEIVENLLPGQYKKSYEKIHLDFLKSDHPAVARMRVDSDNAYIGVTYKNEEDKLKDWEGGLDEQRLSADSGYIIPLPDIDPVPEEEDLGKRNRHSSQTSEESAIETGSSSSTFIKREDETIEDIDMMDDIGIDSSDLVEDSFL

| Compound | tumor weight per mouse at sacrifice, lower than in vehicle-treated mice ([1]; 20 mg/kg intraperitoneally once daily for 35 d from 8 wk of age, at sacrifice (12 wk), FIG. 1C) [%] | tumor growth (tumor volumes by calipers) vs vehicle-treated mice ([1]; 20 mg/kg intraperitoneally once daily for 35 d from 8 wk of age) | tumor growth (tumor volumes by calipers) vs vehicle-treated mice ([1]; 20 mg/kg intraperitoneally once daily for 35 d from 8 wk of age, listed as the present invention) | number of tumors [1, 8] | tumor volume [1, 8] | tumor weight [1, 8] | downstream pathway signaling (phosphorylated AK and ERK 1/2) ([2]; human mammary fibroblasts pre-treated, conditioned media from MDA-MB-468 cells, FIG. 2) | increase in PDGFRβ signaling induced by conditioned media ([2]; human mammary fibroblasts pretreated with crenolanib, conditioned media from TNBC cell line MDA-MB468, FIG. 2 left half) | inhibition of other known RTKs or serine/threonine kinases [3] | inhibition of PDGFRβ [4] | growth of inflammatory breast cancer cells [5] | inhibition of PDGFRα [6] | oral bioavailability [7] |
| --- | --- | --- | --- | --- | --- | --- | --- | --- | --- | --- | --- | --- | --- |
| CC1(COc2ccc3c(c2)ncn3-c2ccc3cccc(N4CCC(N)CC4)c3n2)COC1 [crenolanib, 4-Piperidinamine, 1-[2-[5-[(3-methyl-3-oxetanyl)methoxy]-1H-benzimidazol-1-yl]-8-quinolinyl]] | 55 | grew significantly more slowly | significantly prevented tumor growth | reduced | reduced | reduced | inhibited | blocked this increased signaling | does not inhibit | highly selective inhibitor | inhibits the growth | – | – |
| crenolanib besylate | – | – | – | – | – | – | – | – | – | ability to inhibit | – | ability to inhibit | orally bioavailable |
